Data reported in the NIST ThermoML archive (doi:10.1016/j.jct.2013.07.026).
Where “and” joins values, the source holds several entries; their conditions need not be identical. Equal entries are not always repeated. Numbers after ± are expanded uncertainties.

Legend:
[1] = Crystal, Calculated from knudsen effusion weight loss
[2] = molar enthalpy of vaporization or sublimation; conditions: 298.15 K; Crystal; Static calorimetry

SMILES: O=C(CCl)c1ccc(Cl)cc1 [2,4'-dichloroacetophenone]
- vapor or sublimation pressure ([1]; 301.2 K): 8.5e-05 ± 4e-06 kPa and 7.6e-05 ± 4e-06 kPa and 7.9e-05 ± 4e-06 kPa
- vapor or sublimation pressure ([1]; 303.19 K): 9.9e-05 ± 5e-06 kPa and 0.000105 ± 5e-06 kPa and 0.000103 ± 5e-06 kPa
- vapor or sublimation pressure ([1]; 305.1 K): 0.000133 ± 7e-06 kPa and 0.000131 ± 7e-06 kPa and 0.000134 ± 7e-06 kPa
- vapor or sublimation pressure ([1]; 307.19 K): 0.000165 ± 8e-06 kPa and 0.000178 ± 9e-06 kPa
- vapor or sublimation pressure ([1]; 309.18 K): 0.000218 ± 1.1e-05 kPa and 0.000214 ± 1.1e-05 kPa and 0.000221 ± 1.1e-05 kPa
- vapor or sublimation pressure ([1]; 311.1 K): 0.00027 ± 1.4e-05 kPa and 0.000271 ± 1.4e-05 kPa and 0.000278 ± 1.4e-05 kPa
- vapor or sublimation pressure ([1]; 313.19 K): 0.000344 ± 1.7e-05 kPa and 0.000341 ± 1.7e-05 kPa and 0.000359 ± 1.8e-05 kPa
- vapor or sublimation pressure ([1]; 315.19 K): 0.000447 ± 2.2e-05 kPa and 0.000437 ± 2.2e-05 kPa and 0.000448 ± 2.2e-05 kPa
- vapor or sublimation pressure ([1]; 317.1 K): 0.000561 ± 2.8e-05 kPa and 0.000553 ± 2.8e-05 kPa and 0.000562 ± 2.8e-05 kPa
- vapor or sublimation pressure ([1]; 319.18 K): 0.000699 ± 3.5e-05 kPa and 0.000686 ± 3.4e-05 kPa and 0.000757 ± 3.8e-05 kPa
- vapor or sublimation pressure ([1]; 321.15 K): 0.000903 ± 4.5e-05 kPa and 0.000911 ± 4.6e-05 kPa and 0.000875 ± 4.4e-05 kPa
- vapor or sublimation pressure ([1]; 323.09 K): 0.001131 ± 0.00012 kPa and 0.001115 ± 0.00011 kPa and 0.001107 ± 0.00011 kPa

SMILES: O=C(CCl)c1ccccc1 [2-chloroacetophenone]
- molar enthalpy [2]: 21 ± 0.406 kcal/mol
